# Experimental data: patent US20250109134A1 (Ascentage Pharma (Suzhou) Co., Ltd., priority 2022, published 2025)
# Structures can show the parent of a compound that is named as a salt.
# Columns and labels:
# Type in all cases: physicochemical
# [1] = Stability study, content and related substances (TRS, total impurity content) by HPLC; settings: for chemical stability (HPLC, TRS total impurity content): open, 60° C., RT/92.5% RH, RT/75% RH, 40° C./75% RH, up to 30 days
# Experimental: In the present invention, the HPLC (high performance liquid chromatography) test parameters are set as follows:
# Then, the sample flasks were opened to air (sealed with aluminum foil punctured with small holes) and placed in constant temperature and humidity cabinets at high temperature (60° C.), at room temperature and high humidity ([…]), at RT/75% RH, and at 40° C./75% RH for 30 days, respectively, […]
# [2] = XRPD characterization (crystallinity), summary evaluation; settings: summary of forms
# Source text: In the present invention, the XRPD test parameters are set as follows: […]
# [3] = Dynamic vapor sorption (DVS) hygroscopicity test; settings: for hygroscopic weight gain (DVS): 25° C. and 80% RH; for hygroscopicity (DVS), in words: 80% RH; for crystalline form before and after hygroscopic test (XRPD after DVS): XRPD of sample after DVS
# Source text: In the present invention, the DVS test parameters are set as follows: […]
# [4] = Polymorph screening (suspension, anti-solvent, gas-liquid diffusion, slow volatilization methods), resulting form by XRPD; settings: for Crystalline form: suspension method; for Crystalline form results 25° C. / Crystalline form results 50° C.: suspension, from crystalline form B
# Experimental: The sample was quickly centrifuged (6000 rpm, 5 min) to remove a supernatant. The resulting precipitate was subjected to vacuum drying (40° C., −0.1 MPa) for 20 h, followed by physical characterization.
# The resulting precipitate was subjected to vacuum drying at 40° C. for 20 h, followed by physical characterization.
# No clear solution was obtained, and the sample was still undissolved after 1 mL of solvent was added. Then, 500 μL of poor solvent (acetone, ACN, MeOH, EtOAc, THE, or […]) was added, and 40 mg of the sample was added to perform an experiment by a suspension method. All suspension samples were stirred at 50° C. for 2 days and quickly centrifuged (6000 rpm, 5 min) to remove a supernatant. The resulting solid was subjected to vacuum drying at 40° C. for 20 h, followed by physical characterization.
# The compound of formula I was subjected to polymorph screening with DCM as a good solvent and with MeOH, EtOH, THE, or EA as an anti-solvent, and was dissolved in both DCM and MeOH systems. The suspension sample was stirred for 2 days and quickly centrifuged to remove a supernatant. The resulting precipitate was subjected to vacuum drying at 25° C. for 20 h, followed by physical characterization.
# The resulting precipitate was subjected to vacuum drying at room temperature for 20 h, followed by physical characterization.
# The resulting precipitate was subjected to vacuum drying for 20 h.
# Sonication was performed for 1 min to obtain a clear solution, which was filtered through a 0.22 μm filter membrane and aliquoted into seven 8 mL glass flasks. An anti-solvent was added until precipitation occurred. The sample was stirred at room temperature for 1 day and quickly centrifuged. The resulting solid precipitate was subjected to vacuum drying.
# Then, an anti-solvent was added until precipitation occurred, and the mixture was stirred at room temperature overnight and quickly centrifuged (6000 rpm, 6 min) to remove a supernatant. The resulting precipitate was subjected to vacuum drying for 20 h.
# Then, the solution was added to a 20 mL glass flask containing 2 mL of an anti-solvent (shown in the following table), and the flask was tightly capped at room temperature and placed in a fume hood for diffusion. When precipitation occurred, the flask was taken out, and the resulting precipitate was subjected to vacuum drying for 20 h.
# The flask placed in a fume hood at room temperature for diffusion. When precipitation occurred, the flask was taken out, and the resulting precipitate was subjected to vacuum drying for 20 h.
# The mixture was stirred at 50° C. or room temperature for 6 days and quickly centrifuged (6000 rpm, […]) to remove a supernatant. The resulting precipitate was subjected to vacuum drying for 20 h.
# [5] = Stability study, solid form by XRPD after open storage at high temperature / high humidity; settings: open, 60° C.; RT/92.5% RH; RT/75% RH; 40° C./75% RH; 30 days
# Experimental: In the present invention, the XRPD test parameters are set as follows:
# Then, the sample flasks were opened to air (sealed with aluminum foil punctured with small holes) and placed in constant temperature and humidity cabinets at high temperature (60° C.), at room temperature and high humidity (RT/92.5% RH), at RT/75% RH, and at 40° C./75% RH for 30 days, respectively, and samples were taken at days 5, 10 and 30 for XRPD and HPLC detection.
# [6] = solvent Acetone-H2O = 1-2, 2 days
smiles,measurement,setting,value
CC(C)N1Cc2cc(C(F)(F)F)ncc2-c2cnc(NCc3c(F)ccc4c3CCO4)n3cnc(c23)C1=O.Cl [Crystalline form A of hydrochloride salt],TRS(%),"[1]; 40° C./75RH %-5 d, open storage",0.30%
same,TRS(%),"[1]; 40° C./75RH %- 10 d, open storage",0.28%
same,TRS(%),"[1]; 40° C./75RH %- 30 d, open storage",0.28%
same,TRS(%),"[1]; 60° C.-5 d, open storage",0.28%
same,TRS(%),"[1]; 60° C.-10 d, open storage",0.34%
same,TRS(%),"[1]; 60° C.-30 d, open storage",0.27%
same,TRS(%),"[1]; Initial, TRS = total impurity content, HPLC",0.31%
same,TRS(%),"[1]; RT/75% RH 7 d, open storage",0.26%
same,TRS(%),"[1]; RT/75% RH 10 d, open storage",0.26%
same,TRS(%),"[1]; RT/75% RH 30 d, open storage",0.37%
same,TRS(%),"[1]; RT/90RH %-5 d, open storage",0.28%
same,TRS(%),"[1]; RT/90RH %-10 d, open storage",0.26%
same,TRS(%),"[1]; RT/90RH %-30 d, open storage",0.27%
CC(C)N1Cc2cc(C(F)(F)F)ncc2-c2cnc(NCc3c(F)ccc4c3CCO4)n3cnc(c23)C1=O.CS(=O)(=O)O [Methanesulfonate salt Crystalline form A],Evaluation results: crystallinity,[2],High crystallinity
CC(C)N1Cc2cc(C(F)(F)F)ncc2-c2cnc(NCc3c(F)ccc4c3CCO4)n3cnc(c23)C1=O.O=S(=O)(O)O [Sulfate Crystalline form A],Evaluation results: hygroscopicity,[3]; summary of forms,Slight hygroscopicity
CC(C)N1Cc2cc(C(F)(F)F)ncc2-c2cnc(NCc3c(F)ccc4c3CCO4)n3cnc(c23)C1=O [compound of formula I],Crystalline form,"[4]; solvent DCM/EA = 1-1, stirred 2 days",Crystalline form A
same,Crystalline form,"[4]; solvent DCM/EtOH = 2-1, stirred 2 days",Crystalline form A
same,Crystalline form,"[4]; solvent DCM/THF = 1-1, stirred 2 days",Crystalline form A
same,Crystalline form,"[4]; solvent DCM, stirred 2 days",Crystalline form A
same,Crystalline form,"[4]; solvent DMF/H2O = 1/3, 50° C., 2 days",Crystalline form B + DMF solvate
same,Crystalline form,"[4]; solvent DMF, 50° C., 2 days",Crystalline form B + DMF solvate
same,Crystalline form,"[4]; solvent NMP/ACN = 1/3, 50° C., 2 days",N-methyl-2-pyrrolidone solvate
same,Crystalline form,"[4]; solvent NMP/EtOAc = 1/3, 50° C., 2 days",N-methyl-2-pyrrolidone solvate
same,Crystalline form,"[4]; solvent NMP/H2O = 1/3, 50° C., 2 days",Crystalline forms A + B
same,Crystalline form,"[4]; solvent NMP/MeOH = 1/3, 50° C., 2 days",N-methyl-2-pyrrolidone solvate
same,Crystalline form,"[4]; solvent NMP/THF = 1/3, 50° C., 2 days",N-methyl-2-pyrrolidone solvate
same,Crystalline form,"[4]; solvent NMP/acetone = 1/3, 50° C., 2 days",N-methyl-2-pyrrolidone solvate
same,Crystalline form,"[4]; solvent NMP, 50° C., 2 days",N-methyl-2-pyrrolidone solvate
CC(C)N1Cc2cc(C(F)(F)F)ncc2-c2cnc(NCc3c(F)ccc4c3CCO4)n3cnc(c23)C1=O [crystalline form A of the compound of formula I],"chemical stability (HPLC, TRS total impurity content)",[1],good chemical stability
same,hygroscopic weight gain (DVS),[3],0.44%
same,"hygroscopicity (DVS), in words",[3],slight hygroscopicity
same,"change in the crystalline form after storage (XRPD), physical stability",[5],no change in the crystalline form
CC(C)N1Cc2cc(C(F)(F)F)ncc2-c2cnc(NCc3c(F)ccc4c3CCO4)n3cnc(c23)C1=O [crystalline form A of the hydrochloride salt of the compound],"chemical stability (HPLC, TRS total impurity content)",[1],good chemical stability
same,hygroscopic weight gain (DVS),[3],0.31%
same,"hygroscopicity (DVS), in words",[3],slight hygroscopicity
same,crystalline form before and after hygroscopic test (XRPD after DVS),[3],did not change
same,"change in the crystalline form after storage (XRPD), physical stability",[5],no change in the crystalline form
CC(C)N1Cc2cc(C(F)(F)F)ncc2-c2cnc(NCc3c(F)ccc4c3CCO4)n3cnc(c23)C1=O [crystalline form A of the methanesulfonate salt of the compo],hygroscopic weight gain (DVS),[3],0.84%
same,"hygroscopicity (DVS), in words",[3],slight hygroscopicity
same,crystalline form before and after hygroscopic test (XRPD after DVS),[3],did not change
same,"change in the crystalline form after storage (XRPD), physical stability",[5],no change in the crystalline form
CC(C)N1Cc2cc(C(F)(F)F)ncc2-c2cnc(NCc3c(F)ccc4c3CCO4)n3cnc(c23)C1=O [crystalline form A of the sulfate salt of the compound of fo],hygroscopic weight gain (DVS),[3],1.43%
same,"hygroscopicity (DVS), in words",[3],slight hygroscopicity
same,crystalline form before and after hygroscopic test (XRPD after DVS),[3],did not change
same,"change in the crystalline form after storage (XRPD), physical stability",[5],no change in the crystalline form
CC(C)N1Cc2cc(C(F)(F)F)ncc2-c2cnc(NCc3c(F)ccc4c3CCO4)n3cnc(c23)C1=O [crystalline form B of the compound of formula I],"chemical stability (HPLC, TRS total impurity content)",[1],good chemical stability
same,hygroscopic weight gain (DVS),[3],0.84%
same,"hygroscopicity (DVS), in words",[3],slight hygroscopicity
same,"change in the crystalline form after storage (XRPD), physical stability",[5],no change in the crystalline form
CC(C)N1Cc2cc(C(F)(F)F)ncc2-c2cnc(NCc3c(F)ccc4c3CCO4)n3cnc(c23)C1=O [crystalline form B],Crystalline form results 25° C.,"[4]; solvent ACN, 2 days",Crystalline form A
same,Crystalline form results 50° C.,"[4]; solvent ACN, 2 days",Crystalline form A
same,Crystalline form results 25° C.,"[4]; solvent ACN—H2O = 1-1, 2 days",Crystalline form A
same,Crystalline form results 50° C.,"[4]; solvent ACN—H2O = 1-1, 2 days",Crystalline form A
same,Crystalline form results 25° C.,[4]; [6],Crystalline form B
same,Crystalline form results 50° C.,[4]; [6],Crystalline form B
same,Crystalline form results 25° C.,"[4]; solvent Acetone, 2 days",Crystalline form B
same,Crystalline form results 50° C.,"[4]; solvent Acetone, 2 days",Crystalline form B
same,Crystalline form results 50° C.,"[4]; solvent EtOAc, 2 days",Crystalline form B
same,Crystalline form results 25° C.,"[4]; solvent EtOH, 2 days",Crystalline form B
same,Crystalline form results 50° C.,"[4]; solvent EtOH, 2 days",Crystalline form A
same,Crystalline form results 25° C.,"[4]; solvent EtOH—H2O 1-1, 2 days",Crystalline form B
same,Crystalline form results 50° C.,"[4]; solvent EtOH—H2O 1-1, 2 days",Crystalline form A
same,Crystalline form results 25° C.,"[4]; solvent EtOH—H2O = 3-1, 2 days",Crystalline form B
same,Crystalline form results 50° C.,"[4]; solvent EtOH—H2O = 3-1, 2 days",Crystalline form A
same,Crystalline form results 25° C.,"[4]; solvent H2O, 2 days",Crystalline form B
same,Crystalline form results 50° C.,"[4]; solvent H2O, 2 days",Crystalline form B
same,Crystalline form results 25° C.,"[4]; solvent Heptane, 2 days",Crystalline form B
same,Crystalline form results 25° C.,"[4]; solvent MTBE, 2 days",Crystalline form E
same,Crystalline form results 50° C.,"[4]; solvent MTBE, 2 days",Crystalline form G
same,Crystalline form results 25° C.,"[4]; solvent MeOH, 2 days",Crystalline form A
same,Crystalline form results 50° C.,"[4]; solvent MeOH, 2 days",Crystalline form A
same,Crystalline form results 25° C.,"[4]; solvent MeOH—H2O 1-1, 2 days",Crystalline form F
same,Crystalline form results 50° C.,"[4]; solvent MeOH—H2O 1-1, 2 days",Crystalline form A
same,Crystalline form results 25° C.,"[4]; solvent MeOH—H2O = 3-1, 2 days",Crystalline form A
same,Crystalline form results 25° C.,"[4]; solvent THF, 2 days",Crystalline form B
same,Crystalline form results 50° C.,"[4]; solvent THF, 2 days",Crystalline form B
same,Crystalline form results 25° C.,"[4]; solvent Toluene, 2 days",Toluene solvate
CC(C)N1Cc2cc(C(F)(F)F)ncc2-c2cnc(NCc3c(F)ccc4c3CCO4)n3cnc(c23)C1=O.Cc1ccc(S(=O)(=O)O)cc1 [p-toluenesulfonate Crystalline form A],Evaluation results: crystallinity,[2],High crystallinity
